Assay: Measured activity expressed as ID50 (analogue)/ID50 (paclitaxel), where ID50 is the concentration of compound leading to 50% inhibition of the rate microtubule disassembly
Type: functional

| SMILES | Activity |
| --- | --- |
| CC(=O)N[C@@H](c1ccccc1)[C@@H](O)C(=O)O[C@H]1C[C@@]2(O)[C@@H](OC(=O)c3ccccc3)[C@H]3[C@@](C)([C@@H](O)CC4OC[C@]43OC(C)=O)[C@@H](O)[C@H](OC(C)=O)C(=C1C)C2(C)C (stereo partly drawn) | 3.17 |
| CC(=O)O[C@H]1C(=O)[C@]2(C)[C@@H](O)CC3OC[C@@]3(OC(C)=O)[C@H]2[C@H](OC(=O)C2CCCCC2)[C@]2(O)C[C@H](OC(=O)[C@H](O)[C@@H](NC(=O)c3ccccc3)c3ccccc3)C(C)=C1C2(C)C (stereo partly drawn) | 1.7 |
| CC(=O)O[C@@H]1C2=C(C)[C@@H](OC(=O)[C@H](O)[C@@H](NC(=O)c3ccccc3)c3ccccc3)C[C@@](O)([C@@H](OC(=O)c3ccccc3)[C@H]3[C@@](C)([C@@H](O)CC4OC[C@]43OC(C)=O)[C@H]1O)C2(C)C (stereo partly drawn) | 0.86 |
| CC(=O)O[C@@]12COC1C[C@H](O)[C@@]1(C)C(=O)[C@H](O)C3=C(C)[C@@H](OC(=O)[C@H](NC(=O)OC(C)(C)C)[C@H](O)c4ccccc4)C[C@@](O)([C@@H](OC(=O)c4ccccc4)[C@@H]12)C3(C)C (stereo partly drawn) | 10 |
| CCCCOC(=O)N[C@H](c1ccccc1)[C@@H](O)C(=O)O[C@H]1C[C@@]2(O)[C@@H](OC(=O)c3ccccc3)[C@H]3[C@](C)(C(=O)[C@H](OC(C)=O)C(=C1C)C2(C)C)[C@@H](O)CC1OC[C@]13OC(C)=O (stereo partly drawn) | 0.8 |
| CC(=O)O[C@@H]1C2=C(C)[C@@H](OC(=O)[C@H](O)[C@@H](NC(=O)OC(C)(C)C)C(O)CO)C[C@@](O)([C@@H](OC(=O)c3ccccc3)[C@H]3[C@@](C)([C@@H](O)CC4OC[C@]43OC(C)=O)[C@H]1O)C2(C)C (stereo partly drawn) | 2.71 |
| COC(=O)[C@@H](C(=O)O[C@H]1C[C@@]2(O)[C@@H](OC(=O)c3ccccc3)[C@H]3[C@](C)(C(=O)[C@H](OC(C)=O)C(=C1C)C2(C)C)[C@@H](O)CC1OC[C@]13OC(C)=O)[C@H](NC(=O)c1ccccc1)c1ccccc1 (stereo partly drawn) | 30 |
| CC(=O)O[C@H]1C(=O)[C@]2(C)[C@@H](O)CC3OC[C@@]3(OC(C)=O)[C@H]2[C@H](OC(=O)c2ccccc2)[C@]2(O)C[C@H](OC(=O)[C@H](O)[C@H](NC(=O)c3ccccc3)c3ccco3)C(C)=C1C2(C)C (stereo partly drawn) | 0.9 |
| CC(=O)O[C@@]12COC1C[C@H](O)[C@@]1(C)C(=O)[C@H](O)C3=C(C)[C@@H](OC(=O)[C@@H](O)[C@H](N)c4ccccc4)C[C@@](O)([C@@H](OC(=O)c4ccccc4)[C@@H]12)C3(C)C (stereo partly drawn) | 30 |
| CC(=O)O[C@@]12COC1C[C@H](O)[C@@]1(C)C(=O)[C@H](O)C3=C(C)[C@@H](OC(=O)[C@H](O)[C@@H](CC(C)(C)C)NC(=O)OC(C)(C)C)C[C@@](O)([C@@H](OC(=O)c4ccccc4)[C@@H]12)C3(C)C (stereo partly drawn) | 1.45 |
| CC(=O)O[C@@]12COC1C[C@H](O)[C@@]1(C)C(=O)[C@H](O)C3=C(C)[C@@H](OC(=O)/C=C/c4ccccc4)C[C@@](O)([C@@H](OC(=O)c4ccccc4)[C@@H]12)C3(C)C (stereo partly drawn) | 23 |
| COC(=O)[C@@H](C(=O)O[C@H]1C[C@@]2(O)[C@@H](OC(=O)c3ccccc3)[C@H]3[C@](C)(C(=O)[C@H](O)C(=C1C)C2(C)C)[C@@H](O)CC1OC[C@]13OC(C)=O)[C@H](NC(=O)OC(C)(C)C)c1ccccc1 (stereo partly drawn) | 10 |
| CC(=O)O[C@H]1C(=O)[C@]2(C)[C@@H](O)CC3OC[C@@]3(OC(C)=O)[C@H]2[C@H](OC(=O)c2ccccc2)[C@]2(O)C[C@H](OC(=O)[C@H](O)[C@H](NC(=O)c3ccccc3)c3cccc4ccccc34)C(C)=C1C2(C)C (stereo partly drawn) | 7.1 |
| CC(=O)O[C@@]12COC1C[C@H](O)[C@@]1(C)C(=O)[C@H](O)C3=C(C)[C@@H](OC(=O)[C@H](O)[C@H](NC(=O)C4CCCC4)C(C)(C)C)C[C@@](O)([C@@H](OC(=O)c4ccccc4)[C@@H]12)C3(C)C (stereo partly drawn) | 1.5 |
| CC(=O)O[C@H]1C(=O)[C@]2(C)[C@@H](O)CC3OC[C@@]3(OC(C)=O)[C@H]2[C@H](OC(=O)c2ccccc2)[C@]2(O)C[C@H](OC(=O)[C@H](O)[C@H](NC(=O)c3ccc(C)cc3)c3ccccc3)C(C)=C1C2(C)C (stereo partly drawn) | 1.1 |
| COC(=O)[C@H]1CC2OC[C@@]2(OC(C)=O)[C@H]2[C@H](OC(=O)c3ccccc3)[C@]3(O)C[C@H](OC(=O)[C@H](O)[C@@H](NC(=O)c4ccccc4)c4ccccc4)C(C)=C([C@@H](OC(C)=O)[C@H](C(=O)OC)[C@]12C)C3(C)C (stereo partly drawn) | 0.91 |
| C/C=C(/C)C(=O)N[C@H](c1ccccc1)[C@@H](O)C(=O)O[C@H]1C[C@@]2(O)[C@@H](OC(=O)c3ccccc3)[C@H]3[C@](C)(C(=O)[C@H](OC(C)=O)C(=C1C)C2(C)C)[C@@H](O)CC1OC[C@]13OC(C)=O (stereo partly drawn) | 1.5 |
| COC[C@H](NC(=O)c1ccccc1)[C@@H](O)C(=O)O[C@H]1C[C@@]2(O)[C@@H](OC(=O)c3ccccc3)[C@H]3[C@@](C)([C@@H](O)CC4OC[C@]43OC(C)=O)[C@@H](O)[C@H](OC(C)=O)C(=C1C)C2(C)C (stereo partly drawn) | 3.14 |
| CC[C@H](NC(=O)OC(C)(C)C)[C@@H](O)C(=O)O[C@H]1C[C@@]2(O)[C@@H](OC(=O)c3ccccc3)[C@H]3[C@@](C)([C@@H](O)CC4OC[C@]43OC(C)=O)[C@@H](O)[C@H](OC(C)=O)C(=C1C)C2(C)C (stereo partly drawn) | 0.61 |
| CO[C@H]1CC2OC[C@@]2(OC(C)=O)[C@H]2[C@H](OC(=O)c3ccccc3)[C@]3(O)C[C@H](OC(=O)[C@H](O)[C@@H](NC(=O)c4ccccc4)c4ccccc4)C(C)=C([C@@H](OC(C)=O)[C@H](O)[C@]12C)C3(C)C (stereo partly drawn) | 0.92 |
| CO[C@H]1[C@H](OC(C)=O)C2=C(C)[C@@H](OC(=O)[C@H](O)[C@@H](NC(=O)c3ccccc3)c3ccccc3)C[C@@](O)([C@@H](OC(=O)c3ccccc3)[C@H]3[C@@]1(C)[C@@H](O)CC1OC[C@]13OC(C)=O)C2(C)C (stereo partly drawn) | 0.35 |
| CC(=O)O[C@@]12COC1C[C@H](O)[C@@]1(C)C(=O)[C@H](O)C3=C(C)[C@@H](OC(=O)[C@@H](O)Cc4ccccc4)C[C@@](O)([C@@H](OC(=O)c4ccccc4)[C@@H]12)C3(C)C (stereo partly drawn) | 3.5 |
| CCOC(=O)N[C@@H](c1ccccc1)[C@@H](O)C(=O)O[C@H]1C[C@@]2(O)[C@@H](OC(=O)c3ccccc3)[C@H]3[C@@](C)([C@@H](O)CC4OC[C@]43OC(C)=O)[C@@H](O)[C@H](OC(C)=O)C(=C1C)C2(C)C (stereo partly drawn) | 0.82 |
| CC(=O)O[C@H]1C(=O)[C@]2(C)[C@@H](O)CC3OC[C@@]3(OC(C)=O)[C@H]2[C@H](OC(=O)c2ccccc2)[C@]2(O)C[C@H](OC(=O)[C@H](O)[C@H](NC(=O)c3ccccc3)c3ccc(C)cc3)C(C)=C1C2(C)C (stereo partly drawn) | 0.8 |
| CC(=O)O[C@H]1C(=O)[C@]2(C)[C@@H](O)CC3OC[C@@]3(OC(C)=O)[C@H]2[C@H](OC(=O)c2ccccc2)[C@]2(O)C[C@H](OC(=O)[C@H](O)[C@H](NC(=O)c3ccco3)c3ccccc3)C(C)=C1C2(C)C (stereo partly drawn) | 0.8 |
| CC(=O)O[C@H]1C(=O)[C@]2(C)[C@@H](O)CC3OC[C@@]3(OC(C)=O)[C@H]2[C@H](OC(=O)c2ccccc2)[C@]2(O)C[C@H](OC(=O)[C@H](O)[C@H](N)c3ccccc3)C(C)=C1C2(C)C (stereo partly drawn) | 44 |
| CC(=O)O[C@@]12COC1C[C@H](O)[C@@]1(C)C(=O)[C@H](O)C3=C(C)[C@@H](OC(=O)[C@H](O)[C@H](NC(=O)N(C)c4ccc[nH]4)C(C)(C)C)C[C@@](O)([C@@H](OC(=O)c4ccccc4)[C@@H]12)C3(C)C (stereo partly drawn) | 0.96 |
| CC(=O)O[C@H]1C(=O)[C@]2(C)[C@@H](O)CC3OC[C@@]3(OC(C)=O)[C@H]2[C@H](OC(=O)c2ccccc2)[C@]2(O)C[C@H](OC(=O)[C@H](NC(=O)OC(C)(C)C)[C@H](O)c3ccccc3)C(C)=C1C2(C)C (stereo partly drawn) | 10 |
